Data set [1] addresses ATP-binding cassette sub-family C member 3 (Homo sapiens, UniProt O15438). Description: Inhibition of human MRP3 overexpressed in Sf9 insect cell membrane vesicles assessed as uptake of [3H]-estradiol-17beta-D-glucuronide in presence of ATP and GSH measured after 10 mins by membrane vesicle transport assay. The class given is ADME, cell-based.
Data set [2] has as its target ATP-binding cassette sub-family C member 2 (Homo sapiens, UniProt Q92887). Kind of data set: Inhibition of human MRP2 overexpressed in Sf9 cell membrane vesicles assessed as uptake of [3H]-estradiol-17beta-D-glucuronide in presence of ATP and GSH measured after 20 mins by membrane vesicle transport assay.
A short description of data set [3]: Ratio of drug concentration at steady state in human at 1200 mg administered orally BID up to 2800 mg/day after 12 hrs to IC50 for human BSEP overexpressed in Sf9 insect cells. The class given is ADME. Conditions: in vivo, po.
Data set [4] can be described thus: AUC in human at 1200 mg administered orally BID up to 2800 mg/day after 12 hrs. Conditions: in vivo, po. Also noted: time < 12 hr, dose 1200 mg, route oral. In kind it is ADME.
A further data set deals with Bile salt export pump (Homo sapiens, UniProt O95342). Description: Inhibition of human BSEP overexpressed in Sf9 cell membrane vesicles assessed as uptake of [3H]-taurocholate in presence of ATP measured after 15 to 20 mins by membrane vesicle transport assay. In kind it is ADME, cell-based.
The target in data set [5] is T1, ATP-binding cassette sub-family C member 4 (Homo sapiens, UniProt O15439).
T1 sequence (O15439 whole entry): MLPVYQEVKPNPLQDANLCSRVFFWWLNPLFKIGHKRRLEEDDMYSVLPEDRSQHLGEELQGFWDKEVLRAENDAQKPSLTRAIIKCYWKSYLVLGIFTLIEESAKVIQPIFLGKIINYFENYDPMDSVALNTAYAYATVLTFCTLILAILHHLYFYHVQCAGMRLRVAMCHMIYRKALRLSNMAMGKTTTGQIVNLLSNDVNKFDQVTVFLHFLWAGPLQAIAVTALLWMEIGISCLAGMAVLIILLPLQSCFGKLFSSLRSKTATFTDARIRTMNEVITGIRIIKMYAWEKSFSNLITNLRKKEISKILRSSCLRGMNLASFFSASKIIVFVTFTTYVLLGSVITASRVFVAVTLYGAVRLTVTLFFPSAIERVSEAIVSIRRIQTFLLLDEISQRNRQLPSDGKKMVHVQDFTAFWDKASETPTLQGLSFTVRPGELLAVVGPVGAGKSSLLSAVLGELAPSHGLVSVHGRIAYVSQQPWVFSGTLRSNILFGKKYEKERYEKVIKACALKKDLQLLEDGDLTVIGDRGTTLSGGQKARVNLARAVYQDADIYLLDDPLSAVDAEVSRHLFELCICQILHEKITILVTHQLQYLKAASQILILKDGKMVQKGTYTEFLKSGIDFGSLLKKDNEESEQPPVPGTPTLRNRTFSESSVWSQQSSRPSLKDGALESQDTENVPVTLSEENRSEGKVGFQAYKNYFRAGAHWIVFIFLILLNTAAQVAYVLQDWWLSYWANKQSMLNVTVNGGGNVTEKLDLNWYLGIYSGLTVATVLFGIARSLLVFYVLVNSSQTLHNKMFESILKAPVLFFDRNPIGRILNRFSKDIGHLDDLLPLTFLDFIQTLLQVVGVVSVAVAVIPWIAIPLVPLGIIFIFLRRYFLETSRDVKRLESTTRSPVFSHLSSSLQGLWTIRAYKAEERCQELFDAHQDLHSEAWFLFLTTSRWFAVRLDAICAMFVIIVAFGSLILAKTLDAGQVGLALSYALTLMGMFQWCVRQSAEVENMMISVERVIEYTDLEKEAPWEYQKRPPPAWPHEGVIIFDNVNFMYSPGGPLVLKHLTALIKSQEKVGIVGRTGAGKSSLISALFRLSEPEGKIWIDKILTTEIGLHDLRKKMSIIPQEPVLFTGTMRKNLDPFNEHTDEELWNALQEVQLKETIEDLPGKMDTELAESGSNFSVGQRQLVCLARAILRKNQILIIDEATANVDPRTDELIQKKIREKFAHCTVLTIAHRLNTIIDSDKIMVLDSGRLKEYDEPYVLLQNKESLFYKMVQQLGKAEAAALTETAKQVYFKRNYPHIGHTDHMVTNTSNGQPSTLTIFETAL
Kind of data set: Inhibition of human MRP4 overexpressed in Sf9 cell membrane vesicles assessed as uptake of [3H]-estradiol-17beta-D-glucuronide in presence of ATP and GSH measured after 20 mins by membrane vesicle transport assay. In kind it is ADME, cell-based.

Data set [6] can be described thus: Drug concentration at steady state in human at 1200 mg administered orally BID up to 2800 mg/day after 12 hrs. The class given is ADME. To be noted: in vivo, po, read-out: Css.
Data set [7] is described as follows: AUC in human at 2 to 8 mg, po QD after 24 hrs. To be noted: in vivo. In kind it is ADME, organism-based.
Data set [8] is described as follows: Ratio of drug concentration at steady state in human at 2 to 8 mg, po QD after 24 hrs to IC50 for human MRP4 overexpressed in Sf9 insect cells. Conditions: in vivo. In kind it is ADME, organism-based.
The nature of data set [9]: Ratio of drug concentration at steady state in human at 2 to 8 mg, po QD after 24 hrs to IC50 for human BSEP overexpressed in Sf9 insect cells. In kind it is ADME, organism-based. Conditions: in vivo.
Data set [10] is described as follows: Drug concentration at steady state in human at 2 to 8 mg, po QD after 24 hrs. In kind it is ADME, organism-based. To be noted: in vivo, read-out: Css.
A short description of data set [11]: Ratio of drug concentration at steady state in human at 300 to 600 mg, po QD after 24 hrs to IC50 for human BSEP overexpressed in Sf9 insect cells. The class given is ADME, organism-based. Conditions: in vivo.
Data set [12] is described as follows: Drug concentration at steady state in human at 300 to 600 mg, po QD after 24 hrs. In kind it is ADME, organism-based. To be noted: in vivo, read-out: Css.
Data set [13] can be described thus: AUC in human at 300 to 600 mg, po QD after 24 hrs. The class given is ADME, organism-based. Conditions: in vivo.
Data set [14] can be described thus: Ratio of drug concentration at steady state in human at 300 to 600 mg, po QD after 24 hrs to IC50 for human MRP4 overexpressed in Sf9 insect cells. The class given is ADME, organism-based. To be noted: in vivo.
A short description of data set [15]: Ratio of drug concentration at steady state in human at 100 to 200 mg, po QD after 24 hrs to IC50 for human MRP4 overexpressed in Sf9 insect cells. The class given is ADME, organism-based. Conditions: in vivo.
A short description of data set [16]: AUC in human at 100 to 200 mg, po QD after 24 hrs. In kind it is ADME, organism-based. To be noted: in vivo.
Data set [17] can be described thus: Ratio of drug concentration at steady state in human at 100 to 200 mg, po QD after 24 hrs to IC50 for human MRP2 overexpressed in Sf9 insect cells. In kind it is ADME, organism-based. To be noted: in vivo.
Data set [18] is described as follows: Ratio of drug concentration at steady state in human at 100 to 200 mg, po QD after 24 hrs to IC50 for human BSEP overexpressed in Sf9 insect cells. The class given is ADME, organism-based. Conditions: in vivo.
Data set [19] in a line: Drug concentration at steady state in human at 100 to 200 mg, po QD after 24 hrs. In kind it is ADME, organism-based. To be noted: in vivo, read-out: Css.
Data set [20] can be described thus: AUC in human at 0.5 to 2 mg/kg, po QD after 24 hrs. In kind it is ADME, organism-based. To be noted: in vivo.
Data set [21] in a line: Ratio of drug concentration at steady state in human at 0.5 to 2 mg/kg, po QD after 24 hrs to IC50 for human BSEP overexpressed in Sf9 insect cells. In kind it is ADME, organism-based. To be noted: in vivo.
Data set [22] in a line: Drug concentration at steady state in human at 0.5 to 2 mg/kg, po QD after 24 hrs. To be noted: in vivo, read-out: Css. The class given is ADME, organism-based.

Where only a bound is given, the exact number is not on record here.

ATP-binding cassette sub-family C member 3, sequence (O15438 whole entry): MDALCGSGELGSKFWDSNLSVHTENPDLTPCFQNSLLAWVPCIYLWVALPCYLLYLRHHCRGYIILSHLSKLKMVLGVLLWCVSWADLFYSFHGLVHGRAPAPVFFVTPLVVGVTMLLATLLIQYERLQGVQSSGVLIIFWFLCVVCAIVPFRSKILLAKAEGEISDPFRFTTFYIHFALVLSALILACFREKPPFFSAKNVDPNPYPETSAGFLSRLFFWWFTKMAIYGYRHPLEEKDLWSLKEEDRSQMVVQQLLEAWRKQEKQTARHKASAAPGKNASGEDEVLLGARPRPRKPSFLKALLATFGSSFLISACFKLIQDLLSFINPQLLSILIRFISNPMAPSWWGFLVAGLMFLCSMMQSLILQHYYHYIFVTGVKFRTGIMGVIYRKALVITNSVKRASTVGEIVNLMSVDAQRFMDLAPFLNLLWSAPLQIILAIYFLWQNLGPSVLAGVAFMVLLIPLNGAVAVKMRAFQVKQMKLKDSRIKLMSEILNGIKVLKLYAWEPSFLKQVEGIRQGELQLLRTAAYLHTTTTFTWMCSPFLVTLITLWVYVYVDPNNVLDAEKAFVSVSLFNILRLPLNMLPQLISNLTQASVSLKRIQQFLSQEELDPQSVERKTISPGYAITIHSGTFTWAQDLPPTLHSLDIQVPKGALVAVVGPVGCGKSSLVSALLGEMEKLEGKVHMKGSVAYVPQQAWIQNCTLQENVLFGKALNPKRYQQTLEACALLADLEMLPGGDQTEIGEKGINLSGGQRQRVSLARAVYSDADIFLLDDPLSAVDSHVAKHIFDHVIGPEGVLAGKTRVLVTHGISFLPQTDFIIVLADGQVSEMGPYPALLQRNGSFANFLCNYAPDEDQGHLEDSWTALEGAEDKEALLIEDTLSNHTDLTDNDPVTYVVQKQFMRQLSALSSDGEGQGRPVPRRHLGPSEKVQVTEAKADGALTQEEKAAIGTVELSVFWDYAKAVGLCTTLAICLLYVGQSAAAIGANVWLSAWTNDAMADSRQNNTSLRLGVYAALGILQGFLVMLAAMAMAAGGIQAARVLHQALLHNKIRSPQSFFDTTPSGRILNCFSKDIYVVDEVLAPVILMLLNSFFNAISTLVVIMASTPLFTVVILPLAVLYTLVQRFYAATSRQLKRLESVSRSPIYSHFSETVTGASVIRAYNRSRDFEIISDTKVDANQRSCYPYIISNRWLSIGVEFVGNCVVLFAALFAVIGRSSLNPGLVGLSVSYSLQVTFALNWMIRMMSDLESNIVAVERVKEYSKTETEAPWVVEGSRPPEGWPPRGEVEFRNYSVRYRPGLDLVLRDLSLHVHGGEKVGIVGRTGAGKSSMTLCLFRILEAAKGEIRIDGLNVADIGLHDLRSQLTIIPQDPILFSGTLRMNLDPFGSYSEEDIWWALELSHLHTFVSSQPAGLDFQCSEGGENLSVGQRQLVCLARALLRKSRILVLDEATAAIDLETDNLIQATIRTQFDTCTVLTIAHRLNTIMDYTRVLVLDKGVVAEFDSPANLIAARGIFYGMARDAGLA
Bile salt export pump, sequence (O95342 whole entry): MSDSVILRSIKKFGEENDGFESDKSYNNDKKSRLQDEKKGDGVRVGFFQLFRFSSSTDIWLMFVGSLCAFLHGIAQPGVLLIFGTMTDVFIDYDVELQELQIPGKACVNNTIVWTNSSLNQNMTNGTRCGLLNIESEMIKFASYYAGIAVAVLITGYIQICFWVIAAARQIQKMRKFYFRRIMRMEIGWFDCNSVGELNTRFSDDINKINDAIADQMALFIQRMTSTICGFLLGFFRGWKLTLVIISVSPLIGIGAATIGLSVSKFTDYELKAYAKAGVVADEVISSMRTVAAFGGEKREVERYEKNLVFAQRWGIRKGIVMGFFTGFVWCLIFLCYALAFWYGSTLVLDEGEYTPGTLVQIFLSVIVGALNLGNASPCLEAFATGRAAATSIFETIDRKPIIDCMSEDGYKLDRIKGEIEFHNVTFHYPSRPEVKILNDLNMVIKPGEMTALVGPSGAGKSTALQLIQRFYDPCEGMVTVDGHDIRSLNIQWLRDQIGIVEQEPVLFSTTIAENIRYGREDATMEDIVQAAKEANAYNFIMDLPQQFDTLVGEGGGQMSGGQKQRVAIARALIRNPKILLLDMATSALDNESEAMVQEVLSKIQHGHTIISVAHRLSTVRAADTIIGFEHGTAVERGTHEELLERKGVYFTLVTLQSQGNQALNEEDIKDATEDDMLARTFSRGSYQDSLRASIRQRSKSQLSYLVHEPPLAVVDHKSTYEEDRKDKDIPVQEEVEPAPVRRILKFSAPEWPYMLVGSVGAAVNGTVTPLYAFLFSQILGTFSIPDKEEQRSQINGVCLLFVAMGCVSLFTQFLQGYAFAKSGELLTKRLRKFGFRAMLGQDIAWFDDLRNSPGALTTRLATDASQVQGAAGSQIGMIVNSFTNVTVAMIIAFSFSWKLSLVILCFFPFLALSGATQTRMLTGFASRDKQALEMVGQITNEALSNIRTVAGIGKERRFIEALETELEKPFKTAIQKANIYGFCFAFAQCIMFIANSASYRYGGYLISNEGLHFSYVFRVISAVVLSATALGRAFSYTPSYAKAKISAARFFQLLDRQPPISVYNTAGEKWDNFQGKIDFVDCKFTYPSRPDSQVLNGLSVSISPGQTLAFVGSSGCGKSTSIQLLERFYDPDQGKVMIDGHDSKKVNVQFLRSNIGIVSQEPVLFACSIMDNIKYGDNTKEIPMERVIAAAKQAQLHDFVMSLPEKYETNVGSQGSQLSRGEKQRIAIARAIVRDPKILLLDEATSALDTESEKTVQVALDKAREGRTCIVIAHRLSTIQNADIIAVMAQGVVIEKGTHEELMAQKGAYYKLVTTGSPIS
ATP-binding cassette sub-family C member 2, sequence (Q92887 whole entry): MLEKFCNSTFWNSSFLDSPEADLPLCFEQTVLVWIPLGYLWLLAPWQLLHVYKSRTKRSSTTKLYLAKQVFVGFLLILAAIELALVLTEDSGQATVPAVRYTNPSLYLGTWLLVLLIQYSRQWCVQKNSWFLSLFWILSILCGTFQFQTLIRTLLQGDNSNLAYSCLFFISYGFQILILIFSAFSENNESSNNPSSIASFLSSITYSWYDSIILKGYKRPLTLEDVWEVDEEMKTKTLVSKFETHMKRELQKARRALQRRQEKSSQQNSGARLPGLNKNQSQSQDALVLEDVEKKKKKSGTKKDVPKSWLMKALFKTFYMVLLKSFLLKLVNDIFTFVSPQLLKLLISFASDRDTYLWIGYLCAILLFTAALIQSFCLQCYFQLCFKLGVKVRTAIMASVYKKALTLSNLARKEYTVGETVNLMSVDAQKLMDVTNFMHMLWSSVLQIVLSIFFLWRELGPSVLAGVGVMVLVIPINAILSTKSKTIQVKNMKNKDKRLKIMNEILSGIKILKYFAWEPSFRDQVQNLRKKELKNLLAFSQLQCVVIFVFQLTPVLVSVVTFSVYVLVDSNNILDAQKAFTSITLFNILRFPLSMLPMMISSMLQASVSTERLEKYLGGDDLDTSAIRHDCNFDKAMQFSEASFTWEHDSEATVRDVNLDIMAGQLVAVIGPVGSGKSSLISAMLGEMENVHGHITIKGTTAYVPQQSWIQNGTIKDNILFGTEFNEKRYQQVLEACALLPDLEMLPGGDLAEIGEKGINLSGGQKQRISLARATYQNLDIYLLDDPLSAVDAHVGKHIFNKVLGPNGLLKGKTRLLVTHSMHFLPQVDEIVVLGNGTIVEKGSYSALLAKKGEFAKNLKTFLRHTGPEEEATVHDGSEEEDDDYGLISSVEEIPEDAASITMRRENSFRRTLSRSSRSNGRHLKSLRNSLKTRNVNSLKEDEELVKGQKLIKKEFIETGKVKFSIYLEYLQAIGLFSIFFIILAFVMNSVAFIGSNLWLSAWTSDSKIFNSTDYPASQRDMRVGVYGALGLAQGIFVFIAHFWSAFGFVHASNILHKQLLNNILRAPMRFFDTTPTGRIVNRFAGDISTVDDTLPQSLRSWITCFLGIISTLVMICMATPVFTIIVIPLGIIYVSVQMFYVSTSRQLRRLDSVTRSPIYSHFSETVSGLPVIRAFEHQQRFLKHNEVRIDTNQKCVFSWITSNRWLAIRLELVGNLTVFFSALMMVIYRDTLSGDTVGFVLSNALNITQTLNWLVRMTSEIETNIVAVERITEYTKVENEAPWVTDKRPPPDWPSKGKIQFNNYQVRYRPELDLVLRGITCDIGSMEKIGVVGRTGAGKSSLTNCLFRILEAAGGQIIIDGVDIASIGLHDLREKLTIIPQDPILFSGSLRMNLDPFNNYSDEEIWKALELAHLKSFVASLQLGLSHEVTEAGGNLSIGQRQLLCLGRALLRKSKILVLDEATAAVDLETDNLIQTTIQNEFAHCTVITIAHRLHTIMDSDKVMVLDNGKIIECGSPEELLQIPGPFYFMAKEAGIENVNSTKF

What is called IC50 is the concentration needed to halve the response being measured. What is called AUC is the area under the concentration-time curve, a measure of exposure. As to `CC(C)CN(C[C@@H](O)[C@H](Cc1ccccc1)NC(=O)O[C@H]1CCOC1)S(=O)(=O)c1ccc(N)cc1`, the 50% inhibitory concentration (IC50) in data set [1] is more than 133 µM; in data set [2], more than 133 µM; on Bile salt export pump, 44.8 µM; in data set [5] it was more than 133 µM. The Ratio in data set [3] is recorded as 0.097. The AUC at 12 h in [4] was found to be 52.2 µM·h. Besides, the concentration at 12 h in data set [6] was found to be 4350 nM.
`CN(CCOc1ccc(CC2SC(=O)NC2=O)cc1)c1ccccn1` (stereo unspecified) [ROSIGLITAZONE] showed an AUC at 24 h in data set [7] of 8.02 µM·h. Moreover, the figures for the Ratio in [8] and in [9] were 0.016 and 0.119, respectively. The IC50 in data set [1] is more than 133 µM; at Bile salt export pump, 2.8 µM; in [5], 21 µM. Also, the concentration at 24 h in data set [10] was 334 nM.
In the case of `CCc1nn(CCCN2CCN(c3cccc(Cl)c3)CC2)c(=O)n1CCOc1ccccc1` [NEFAZODONE], the IC50 in data set [1] is more than 133 µM; in [2] it was more than 133 µM; in data set [5], 71 µM. The Ratio in data set [11] is recorded as 0.099; in [14], 0.009. The concentration at 24 h in data set [12] was found to be 604 nM. Moreover, the exposure (AUC) at 24 h in data set [13] came out at 14.5 µM·h.
Regarding `CCc1oc2ccccc2c1C(=O)c1cc(Br)c(O)c(Br)c1` [BENZBROMARONE], the figures for the IC50 in data set [1], in [2] and in data set [5] were more than 133 µM, 41.6 µM and 17 µM, respectively. Further, the Ratio in [15] is 0.11; in data set [17] it was 0.045; in [18] it was 0.107. This compound also displayed an area under the curve (AUC) at 24 h in [16] of 45 µM·h. In addition, in data set [19], the concentration at 24 h was 1880 nM.
As for `CC1=C(/C=C/C(C)=C/C=C/C(C)=C\C(=O)O)C(C)(C)CCC1` [ISOTRETINOIN], the half-maximal inhibitory concentration (IC50) in [1] is more than 133 µM; in data set [2] it was more than 133 µM; at Bile salt export pump, 37.1 µM; in data set [5] it was more than 133 µM. This compound also gave an AUC at 24 h in [20] of 33.3 µM·h. In addition, in data set [21], the Ratio is 0.037. Moreover, the concentration at 24 h in data set [22] stood at 1390 nM.
